The text below walks through data of patent publication US20030203915A1, “Nitric oxide donors, compositions and methods of use related applications” (priority 2002, published 2003).

Where a name gives a salt, the structure may show the parent alone.

The first data set deals with human coronary artery smooth muscle cells (CASMC). The data set can be described thus: Vascular Smooth Muscle Cell (SMC) Antiproliferation Assay. The note with it: CASMC; viable cell count (Trypan Blue) ~68 hr after compound addition; nitrosylated (nitrosothiol) compound; read-out: IC 50 μM, Nitrosylated Compound (inhibition of proliferation of vascular smooth muscle cells). Type of data set: cell-based. On the procedure:
The cells used in this assay were-human coronary artery smooth-muscle cells (CASMC) supplied by Clonetics Corp. (San Diego, Calif.).
Stock solutions of the test compounds were prepared just prior to addition to the cells by dissolving in ethanol at a concentration of 1000 times the highest concentration to be assayed. This stock solution was diluted, as required, with ethanol to lower concentrations. […] Control cultures received 2 μL of ethanol per well (n=4). On the following morning, the cultures were examined microscopically and their condition recorded. On the third day after test compound addition (˜68 hr), the cultures were examined microscopically again and the viable cells counted with an hemacytometer following trypsinization with 0.25% trypsin-1 mM EDTA. Trypan Blue dye exclusion was used to discriminate between viable and dead cells.
Turning to `C[N+](C)(C)CCNC(=O)CC1(SN=O)C2CC3CC(C2)CC1C3` (stereo not drawn) [Example 44c, 2-(2-(Nitrosothio)adamantan-2-yl)-N-(2-(trimethylammonium)ethyl)-acetamide chloride], the IC50 is 33.5 µM.

For the molecule `CC1(SN=O)CN2CCC1CC2` (stereo not drawn) [Example 36c, (3-Methylquinudidin-3-yl)nitrosothio hydrochlroide], the IC50 was 22 µM.

Take `O=NSC1(CO)CCN(C(=O)OCc2ccccc2)CC1` [Example 26e, Phenylmethyl 4-(hydroxymethyl)-4-(nitrosothio)piperidinecarboxylate]: the IC50 was found to be 33 µM.

As to `CC1(SN=O)C2CC3CC(C2)CC1C3` (stereo not drawn) [Example 25c, (2-Methyladamantan-2-yl)nitrosothio], the IC50 turned out to be 33 µM.

`O=NSC1(CC(=O)NCCO)C2CC3CC(C2)CC1C3` (stereo not drawn) [Example 34d, N-(2-Hydroxyethyl)-2-(2-(nitrosthio)adamantan-2-yl)acetamide]: the IC50 was determined as 23 µM.

Consider `COP(=O)(CC(SN=O)(C1CC1)C1CC1)OC` [Example 47b, Dimethyl (2,2-dicyclopropyl-2-(nitrosothio)ethyl)phosphonate], for which the IC50 was 41 µM.

Regarding `C[N+](C)(CCNC(=O)CC1(SN=O)C2CC3CC(C2)CC1C3)Cc1ccccc1` (stereo not drawn) [Example 43c, N-(2-(Dimethylbenzylammonium)ethyl)-2-(2-(nitrosothio)adamantan-2-yl)acetamide chloride], the IC50 was found to be 27 µM.

The same data set, now with this note: CASMC; viable cell count (Trypan Blue) ~68 hr after compound addition; non-nitrosylated (sulfhydryl) compound.
In the case of `CC(C)(S)CN` [Example 18a, 2-Mercapto-2-methyl-1-propylamine], the “IC 50 μM, Non-nitrosylated Compound (inhibition of proliferation of vascular smooth muscle cells)” value is reported as “slight inhibition”.

Regarding `O=C(OCc1ccccc1)N1CCC(S)(CO)CC1` [Example 26d, Phenylmethyl 4-(hydroxymethyl)-4-sulfanylpiperidinecarboxylate], the “IC 50 μM, Non-nitrosylated Compound (inhibition of proliferation of vascular smooth muscle cells)” value is on record as “no inhibition”.

Take `SC1(C2OCCO2)CCCCC1` [Example 45a, 2(1-Mercaptocyclohex-1-yl)-1,3-dioxolane]: the “IC 50 μM, Non-nitrosylated Compound (inhibition of proliferation of vascular smooth muscle cells)” value is on record as “slight inhibition”.

Turning to `CC(C)(S)CNC(=O)NCC(C)(C)S` [Example 20c, N-(2-Methyl-2-sulfanylpropyl)((2-methyl-2-sulfanylpropyl)amino)carboxade], the “IC 50 μM, Non-nitrosylated Compound (inhibition of proliferation of vascular smooth muscle cells)” value is on record as “slight inhibition”.

Consider `CC(C)(S)CN1C(=O)NC(=O)C1=O` [Example 21b, 1-(2-Methyl-2-sulfanylpropyl)imidazolidine-2,4,5-trione], for which the “IC 50 μM, Non-nitrosylated Compound (inhibition of proliferation of vascular smooth muscle cells)” value was “no inhibition”.

For the molecule `CC1(S)CN2CCC1CC2.Cl` (stereo not drawn) [Example 36b, 3-Methylquinudidine-3-thiol hydrochloride], the “IC 50 μM, Non-nitrosylated Compound (inhibition of proliferation of vascular smooth muscle cells)” value was “no inhibition”.

For `COP(=O)(CC(S)(C1CC1)C1CC1)OC` [Example 47a, Dimethyl (2,2-dicyclopropyl-2-mercaptoethyl)phosphonate], the “IC 50 μM, Non-nitrosylated Compound (inhibition of proliferation of vascular smooth muscle cells)” value is on record as “slight inhibition”.

Consider `C[N+](C)(C)CCNC(=O)CC1(S)C2CC3CC(C2)CC1C3.[Cl-]` (stereo not drawn) [Example 44b, 2-(2—Sulfanyladamantan-2-yl)-N-(2(trimethylammonium)ethyl)acetamide chloride], for which the “IC 50 μM, Non-nitrosylated Compound (inhibition of proliferation of vascular smooth muscle cells)” value was “no inhibition”.

Consider `SC1(C2OCCCO2)CCCCC1` [Example 46a, 2-(1-Mercaptocyclohex-1-yl)-1,3-dioxane], for which the “IC 50 μM, Non-nitrosylated Compound (inhibition of proliferation of vascular smooth muscle cells)” value was “no inhibition”.

Regarding `O=C(CC1(S)C2CC3CC(C2)CC1C3)NCCO` (stereo not drawn) [Example 34c, N-(2-Hydroxyethyl)-2-(2-sulfanyladamantan-2-yl)acetamide], the “IC 50 μM, Non-nitrosylated Compound (inhibition of proliferation of vascular smooth muscle cells)” value is recorded as “no inhibition”.

Take `NC(=O)CC1(S)C2CC3CC(C2)CC1C3` (stereo not drawn) [Example 12c, 2-(2-Sulfanyladamantan-2-yl)acetamide]: the “IC 50 μM, Non-nitrosylated Compound (inhibition of proliferation of vascular smooth muscle cells)” value is given as “slight inhibition”.

As for `C[N+](C)(CCNC(=O)CC1(S)C2CC3CC(C2)CC1C3)Cc1ccccc1.[Cl-]` (stereo not drawn) [Example 43b, N-(2-(Dimethylbenzylammonium)ethyl)-2-(2-sulfanyladamantan-2-yl)acetamide chloride], the “IC 50 μM, Non-nitrosylated Compound (inhibition of proliferation of vascular smooth muscle cells)” value was “no inhibition”.

The data set is the same for the next values; noted with them: CASMC; viable cell count (Trypan Blue) ~68 hr after compound addition; non-nitrosylated (sulfhydryl) compound; read-out: IC 50 μM, Non-nitrosylated Compound (inhibition of proliferation of vascular smooth muscle cells).
For `CC(C)(S)CNC(=O)C(C)(C)CCC(=O)O` [Example 27a], the IC50 was found to be 78 µM.

For `CC(C)(S)CN1C(=O)C2C3C=CC(C3)C2C1=O` (stereo not drawn) [Example 11a, 4-Aza-4-(2-methyl-2-sulfanylpropy)tricyclo(5.2.1.0<2,6>)dec-8-ene-3,5-dione], the IC50 came out at 80 µM.

The same data set, now with this note: Homo sapiens, 68 h, read-out: IC 50 μM, Nitrosylated Compound (inhibition of proliferation of vascular smooth muscle cells).
On to `O=NSC1(CC(=O)OCC(CO[N+](=O)[O-])(CO[N+](=O)[O-])CO[N+](=O)[O-])C2CC3CC(C2)CC1C3` (stereo not drawn) [Example 37, 2,2-Bis((nitrooxy)methyl)-3-(nitrooxy)propyl 2-(2-(nitrosothio)adamantan-2-yl)acetate], for which the IC50 came out at 5 µM.

Staying with this data set, now noted: Homo sapiens; CASMC; viable cell count (Trypan Blue) ~68 hr after compound addition; nitrosylated (nitrosothiol) compound; read-out: IC 50 μM, Nitrosylated Compound (inhibition of proliferation of vascular smooth muscle cells).
For the molecule `CC(C)(CN1C(=O)C2C3C=CC(C3)C2C1=O)SN=O` (stereo not drawn) [Example 11b, 4-Aza-4-(2-methyl-2-(nitrosothio)propyl)tricyclo(5.2.1.0<2,6>)dec-8-ene-3,5-dione], the IC50 is 16 µM.

For the molecule `O=NSC1(C2OCCO2)CCCCC1` [Example 45b, 2(1-Nitrosomercaptocyclohex-1-yl)-1,3-dioxolane], the IC50 worked out at 42 µM.

Regarding `CC(C)(CNC(=O)CCCC(=O)O)SN=O` [Example 19b, 4-(N-(2-Methyl-2-(nitrosothio)propyl)carbamoyl)butanoic acid], the IC50 was determined as 50 µM.

On to `CSc1nccc(NCC(C)(C)S)n1` [Example 18b, 2-Methyl-1-((2-methylthiopyrimidin-4-yl)amino)propane-2-thiol], for which the IC50 came out at 26 µM.

For the molecule `CC(C)(CNC(=O)C(C)(C)CO[N+](=O)[O-])SN=O` [Example 38b, 2,2-Dimethyl-N-(2-methyl-2-(nitrosothio)propyl)-3-(nitrooxy)propanamide], the IC50 stood at 50 µM.

For the molecule `O=NSC1(C2OCCCO2)CCCCC1` [Example 46b, 2-(1-Nitrosomercaptocyclohex-1-yl)-1,3-dioxane], the IC50 turned out to be 47 µM.

Take `CC(C)(C)OC(=O)CC1(SN=O)C2CC3CC(C2)CC1C3` (stereo not drawn) [Example 29, tert-Butyl 2-(2-(nitrosothio)adamantan-2-yl)acetate]: the IC50 was found to be 11 µM.

As to `CC(C)(CNC(=O)NCC(C)(C)SN=O)SN=O` [Example 20d, N-(2-Methyl-2-(nitrosothio)propyl)((2-methyl-2-(nitrosothio)propyl)amino)carboxamide], the IC50 is 28 µM.

Take `NC(=O)CC1(SN=O)C2CC3CC(C2)CC1C3` (stereo not drawn) [Example 12d, 2-(2-(Nitrosothio)adamantan-2-yl)acetamide]: the IC50 came out at 12 µM.

`CC(C)(CN)SN=O` [Example 38a, 2-Methyl-2-(nitrosothio)propylamine hydrochloride]: the IC50 lay in the range of 40 to 60 µM.

The same data set, now with this note: Homo sapiens; CASMC; viable cell count (Trypan Blue) ~68 hr after compound addition; non-nitrosylated (sulfhydryl) compound; read-out: IC 50 μM, Non-nitrosylated Compound (inhibition of proliferation of vascular smooth muscle cells).
`CC(C)(S)CNC(=O)CCCC(=O)O` [Example 19a, 4-(N-(2-Methyl-2-sulfanylpropyl)carbamoyl)butanoic acid]: the IC50 was over 200 µM.

As to `CC1(S)C2CC3CC(C2)CC1C3` (stereo not drawn) [Example 25b, 2-Methyladamantane-2-thiol], the IC50 was 65 µM.

Regarding `CC(C)(C)OC(=O)CC1(S)C2CC3CC(C2)CC1C3` (stereo not drawn) [Example 12a, tert-Butyl-2-(2-sulfanyladamant-2-yl)acetate], the IC50 worked out at 25 µM.

Tested on in another data set: not given
Test: not given
Details: not given
One may read the melting point as the temperature of the solid-liquid transition. Regarding `O=NSC1(C2OCCO2)CCCCC1` [Example 45b, 2(1-Nitrosomercaptocyclohex-1-yl)-1,3-dioxolane], the melting point was in the range of 37 to 39 °C.

Molecule `CC(C)(CNC(=O)CCCC(=O)O)SN=O` [Example 19b, 4-(N-(2-Methyl-2-(nitrosothio)propyl)carbamoyl)butanoic acid] returned a melting point of 104 to 107 °C.

Consider `CSc1nccc(NCC(C)(C)SN=O)n1` [Example 18c, (2-Methyl-2-(nitrosothio)propyl)(2-methylthiopyrimidin-4-yl)amine], for which the melting point fell in the range of 77 to 79 °C.

Take `CC12CCC(C1)C(C)(C)C2(CCO)SN=O` (stereo not drawn) [Example 7, 2-(1,3,3-Trimethyl-2-(nitrosothio)bicyclo(2.2.1)hept-2-yl)ethan-1-ol]: the melting point was 81 to 85 °C.

In the case of `CC(C)(C)C(CC#N)(SN=O)C(C)(C)C` [Example 15, 3-(tert-Butyl)-4,4-dimethyl-3-(nitrosothio)pentanenitrile], the melting point was 92 to 93 °C.

Molecule `O=NSC1(C2OCCCO2)CCCCC1` [Example 46b, 2-(1-Nitrosomercaptocyclohex-1-yl)-1,3-dioxane] showed a melting point of 34 to 36 °C.

Turning to `CC(C)(C)OC(=O)CC1(SN=O)C2CC3CC(C2)CC1C3` (stereo not drawn) [Example 29, tert-Butyl 2-(2-(nitrosothio)adamantan-2-yl)acetate], the melting point lay in the range of 85 to 87 °C.

`CC1(C)c2ccccc2C(C)(C)C1(CC#N)SN=O` [Example 4, 2-(1,1,3,3-Tetramethyl-2-(nitrosothio)indan-2-yl)ethanenitrile]: the melting point fell in the range of 67 to 69 °C.

For the molecule `COc1ccc(C(=O)OCCC2(SN=O)C3CC4CC(C3)CC2C4)cc1` (stereo not drawn) [Example 31, 2-(2-(Nitrosothio)adamantan-2-yl)ethyl 4-methoxybenzoate], the melting point was in the range of 100 to 101 °C.

`CC(C)(CNC(=O)CSCC(=O)O)SN=O` [Example 5, 2-((N-(2-Methyl-2-(nitrosothio)propyl)carbamoyl)methylthio)acetic acid]: the melting point fell in the range of 47 to 51 °C.
